Measured values reported in ChEMBL document CHEMBL1127894, “The synthesis of 2,2,24- trisubstituted oxetanes as new azole antifungal agents” (1994).
Values after ≈ are worked out from the molar mass of the structure shown. Active and inactive are the calls of the source. The calls are words filed in the database; no cut-off is given here.

What was measured:
[1] = tested on: Mus musculus; test: Compound was tested for in vivo activity against Candida albicans C-43 in mice at dose of 10 mg/kg; Inactive; type: functional, organism-based; set-up: dose 10 mg/kg
[2] = tested on: Mus musculus; test: Compound was tested for in vivo activity against Candida albicans C-43 in mice; type: functional
[3] = tested on: Mus musculus; test: Compound was tested for percent survival against Candida albicans C-43 at 50 mg/kg (iv) in mice; type: functional
[4] = tested on: Candida albicans; test: Tested for inhibition of yeast to mycelial transformation against six strains of Candida albicans at concentration of <0.03 ug/mL at pH 7.0; Active; type: functional, organism-based
[5] = tested on: Candida parapsilosis; test: Minimum inhibitory concentration against two strains of Candida parapsilosis; type: functional; conditions: Lodderomyces parapsilosis
[6] = tested on: Candida albicans; test: Tested for inhibition of yeast to mycelial transformation against Candida albicans C-43 at concentration of <0.03 ug/mL at pH 7.0; Active; type: functional, organism-based
[7] = tested on: Candida albicans; test: Tested for inhibition of yeast to mycelial transformation against Candida stellatoidea at concentration of <0.03 ug/mL at pH 7.0; Active; type: functional, organism-based
[8] = tested on: Candida albicans; test: Tested for inhibition of yaest to mycelial transformation against Candida albicans C-43 at concentration of <0.03 ug/mL at pH 7.0; Active; type: functional, organism-based
[9] = tested on: Mus musculus; test: Compound was tested for in vivo activity against 1x 10ex6 CFU of Candida albicans C-43 infected mice at dose of 10 mg/kg; Inactive; type: functional, organism-based; set-up: dose 10 mg/kg
[10] = tested on: Mus musculus; test: Geometri mean CFUs(log 10) for Candida albicans infected mice treated with 50 mg/kg of compound; type: functional
[11] = tested on: Candida albicans; test: In vitro inhibition of yeast to mycelial transformation against Candida albicans C-43 at concentration of <0.03 ug/mL at pH 7.0; Active; type: functional, organism-based
[12] = tested on: Candida albicans; test: In vitro inhibition of yeast to mycelial transformation against Candida stellatoidea at concentration of <0.03 ug/mL at pH 7.0; Active; type: functional, organism-based
[13] = tested on: Candida albicans; test: In vitro inhibition of yeast to mycelial transformation against six strains of Candida albicans at concentration of <0.03 ug/mL at pH 7.0; Active; type: functional, organism-based
[14] = tested on: Candida albicans; test: Tested for inhibition of yeast to mycelial transformation against six strains of Candida albicans at concentration of 16->64 ug/mL at pH 7.0; Slightly active; type: functional, organism-based
[15] = tested on: Candida parapsilosis; test: Minimum inhibitory concentration against two strains of C. parapsilosis; Inactive; type: functional, organism-based
[16] = tested on: Candida albicans; test: Tested for inhibition of yeast to mycelial transformation against Candida albicans C-43 at concentration of 16->64 ug/mL at pH 7.0; Slightly active; type: functional, organism-based
[17] = tested on: Candida albicans; test: Tested for inhibition of yeast to mycelial transformation against Candida stellatoidea at concentration of 16->64 ug/mL at pH 7.0; Slightly active; type: functional, organism-based

In the case of `CC(C)N1CCN(c2ccc(OC[C@@H](O)C[C@@](O)(Cn3cncn3)c3ccc(Cl)cc3Cl)cc2)CC1`, the Activity [1] is reported as “inactive”, the Activity [2] is reported as 4.4 and the survival at 50 mg/kg [3] is reported as 100%. For the same compound, the Activity [4] was “Active”, the MIC [5] was 32 µg/mL (≈ 59.9 µM) and the Activity [6] was “Active”. The Activity [7] was “Active”.
`CC(C)N1CCN(c2ccc(OC[C@@H]3C[C@@](Cn4cncn4)(c4ccc(Cl)cc4Cl)O3)cc2)CC1` (racemic) [listing 1 of 2 here] showed an MIC [5] of 32 µg/mL (≈ 62 µM).
For `CC(C)N1CCN(c2ccc(OC[C@H](O)C[C@@](O)(Cn3cncn3)c3ccc(Cl)cc3Cl)cc2)CC1`, the Activity [1] was “inactive”, the Activity [2] was 4.2 and the survival at 50 mg/kg [3] was 100%. The Activity [4] was “Active”, the MIC [5] was 32 µg/mL (≈ 59.9 µM) and the Activity [8] was “Active”. The Activity [7] was “Active”.
For `CC(C)N1CCN(c2ccc(OC[C@H]3C[C@@](Cn4cncn4)(c4ccc(Cl)cc4Cl)O3)cc2)CC1` (relative stereo), the Activity [9] was “inactive”.
With `CC(C)N1CCN(c2ccc(OC[C@@H]3C[C@@](Cn4cncn4)(c4ccc(Cl)cc4Cl)O3)cc2)CC1` (relative stereo) the Activity [9] was “inactive”.
With `CC(C)N1CCN(c2ccc(OC[C@H]3CC[C@](Cn4cncn4)(c4ccc(Cl)cc4Cl)O3)cc2)CC1` the Activity [10] was 4.3, the survival at 50 mg/kg [3] was 100% and the Activity [4] was “Active”. The MIC [5] was 0.5 µg/mL (≈ 0.943 µM), the Activity [9] was “inactive” and the Activity [6] was “Active”. For the same compound, the Activity [7] was “Active”.
For `CC(C)N1CCN(c2ccc(OC[C@@H]3C[C@@](Cn4cncn4)(c4ccc(Cl)cc4Cl)O3)cc2)CC1` (racemic) [listing 2 of 2 here], the Activity [11] was “Active”, the Activity [12] was “Active” and the Activity [13] was “Active”.
`CC(C)N1CCN(c2ccc(OC[C@H]3C[C@@](Cn4cncn4)(c4ccc(Cl)cc4Cl)O3)cc2)CC1` (racemic) was tested, and the Activity [14] was “Weak activity”, the MIC [15] was “inactive” and the Activity [16] was “Weak activity”. The Activity [17] was “Weak activity”.
